Test results reported in article PMC12264554, “Application of preclinical absorption, distribution, metabolism, elimination in vitro techniques for the characterization and compound library optimization of novel antibiotic gallium salophen” (Drug Metabolism and Disposition, 2025).
Where two headings read alike, the source gives them in different places.

How the values were obtained:
[1] = Experimental LogP by reverse-phase HPLC method; format: physicochemical; conditions: extrapolated log kw
From the text: LogP was experimentally determined using previously published reverse-phase high-performance liquid chromatography method, and this workflow was adapted using instrumentation described in the previous LC-MS/MS analysis section ([Coutinho et al, 2023]). Briefly, analogs were eluted using isocratic flow with an increasing percentage of organic solvent from 55% to 90% in increments of 5%. The change in the log of the retention factor, log k, was plotted against the fraction of organic solvent. This allowed for extrapolation to the y-intercept, which is when the fraction of organic in the system is zero, or log kw. The same workflow was applied to known compounds with a published logP value to establish a relationship between logP and log kw. This ratio was used to calculate the experimental logP from the log kw of the test compounds. The in silico prediction of logP values was obtained using an online calculator by Molinspiration Cheminformatics (molinspiration.com).

[2] = RBC/PL partitioning equilibrium in whole blood; conditions: for ICP-MS calculated KRBC/PL / LC-MS/MS calculated KRBC/PL: sodium heparin whole blood, 6 selectivity lots; for KRBC/PL: K2EDTA whole blood
Protocol: The mixtures were digested at 80 °C for 4 hours and further diluted to a concentration of 6% nitric acid. Gallium (Ga^71) in whole blood, PL, and RBC samples were quantified using an Agilent 7700x ICP-MS instrument (Agilent Technologies). Metal levels were detected using an Octopole Reaction System in He mode. Other ICP-MS parameters include an radio frequency power of 1500 W, on octupole radio frequency of 190 V, an octapole bias of –18 V, a helium gas flow of 4.3 mL/min, and an argon flow of 0.99 L/min. Samples were loaded through a 7700X peristaltic (with a speed of 0.1 rps) and a MicroMist nebulizer. A standard calibration curve was used to derive metal concentrations. The calibration standards from 0–250 ppb were prepared in 6% nitric acid using atomic absorption standards (Sigma). Data analysis and extraction were performed using Agilent’s MassHunter software version 5.1, specifically version D.01.01.
All LC-MS/MS grade solvents were purchased from ThermoFisher. Ammonium bicarbonate was purchased from Sigma Aldrich. Analysis was performed on a Waters I-Class ultra-performance liquid chromatography system connected with a Waters Xevo TQ-XS mass spectrometer. Ten millimolar ammonium bicarbonate, pH 9.4 was used for mobile phase A, and 100% methanol was used for mobile phase B. The column flow rate was set at 0.400 mL/min. Chromatographic separation was performed with a BEH C18 (2.1 × 50 mm, 1.7 μm) column (Waters). […] The total run time was 4 minutes. The column temperature was set to 60 °C, and the autosampler temperature was set to 15 °C. Washing parameters were 800 μL of weak needle wash (acetonitrile [ACN]:Water/50:50) and 1000 μL of strong needle wash (methanol:ACN:2-propanol:formic acid/30:30:40:0.5) after every injection. Transitions used to monitor all drugs in the study are shown in Supplemental Table 1.
Whole blood (either potassium EDTA [K2EDTA] or sodium heparin) was preincubated at 37 °C for 30 minutes before spiking with the analyte. GaSal-5 was made at a stock concentration of 100 μg/mL in water and then spiked at a high concentration (1 μg/mL) and low concentration (100 ng/mL) to determine whether equilibrium was concentration dependent. Samples were then aliquoted and stored in a water bath at 37 °C for 1, 2, 3, 4, and 8 hours or harvested immediately. PL was harvested from samples by centrifuging at 3000 rpm at 4 °C for 10 minutes. PL was transferred to a new tube and considered the PL fraction, whereas the rest of the matrix was considered the RBC fraction. Samples were then either analyzed by LC-MS/MS or ICP-MS. […] For selectivity lot analysis, whole blood from 3 male and 3 female donors were incubated for 2 hours and then analyzed with LC-MS/MS and ICP-MS at a single concentration of 1 μg/mL. Data are presented as average ± SEM, n = 3 per sample, per concentration. Significance was determined by using a paired t test for ICP-MS and LC-MS/MS data (the same sample, different method) or a 2-tailed Student’s t test for different anticoagulants.

[3] = Caco-2 permeability screening; format: in vitro ADME; conditions: for Papp: Caco-2, ranked by Papp against control drugs, read-out: Permeability ranking; for efflux ratio at 20 µM: human
Protocol: Caco-2 cells were received from American Type Culture Collection and certified mycoplasma free. Cells were seeded on transwell plates (CoStar, growth area 0.33 cm^2/well, polycarbonate membrane, 0.33 μm pore size) between passage 20 and 27 and then analyzed between 21 and 25 days after wells were seeded to ensure enterocyte-like differentiation. Before assessing permeability, cells were washed once with Hank’s Balanced Salt Solution buffer, pH 7.4, and then incubated at 37 °C for 30 minutes. Transepithelial electrical resistance (TEER) was measured after equilibration before the experiment using an epithelial volt-ohmmeter (EVOM, World Precision Instruments), and cells were used if TEER > 250 Ω × cm^2. Cells were dosed to measure permeability from basolateral and apical sides at a concentration of 20 μM of test compound and 50 μM of Lucifer yellow. Lucifer yellow was used as a “zero permeability” marker to monitor the integrity of cell barrier. Samples were taken at 0 and 60 minutes from the donor side, and samples were taken at 30 and 60 minutes from the receiver side; media was replenished after the 30-minute sample was taken from both chambers. A calibration curve was prepared by serial dilution using the dosing solution in a 1:5 dilution. […] Samples were prepared for LC-MS/MS analysis by taking 100 μL of sample, adding 1 μM internal standard (GaSal-4 or GaSal-5), and crashing with 400 μL of methanol. Samples were centrifuged at 3000 rpm at 4 °C for 30 minutes, 200 μL of supernatant was transferred to a new plate, and 100 μL of water was added to each sample. Samples were vortexed and analyzed by LC-MS/MS as described earlier. […] To preliminarily evaluate organic cation transporter 1 (OCT1) or P-glycoprotein (P-gp)-dependent transport, transport studies were conducted with and without a 1 μM “inhibitor cocktail” alongside GaSal. […] The Papp for basolateral to apical, Papp apical to basolateral, and efflux ratio were reported for each compound. In order to calculate Papp, the concentration in the sampled time point was determined from the calibration curve and then converted to μg based on the volume of the chamber (0.2 mL for apical, 1.0 mL for basolateral). […] The calculation of Papp was determined using eq. […] Data are presented as the average ± SEM for each compound analyzed as n = 3 on 2 different days with 2 different cell line passages, for n = 6 total. GaSal is n = 3 on 3 different cell line passages since this was used as a test compound for the inhibition cocktail experiments.

[4] = 0.1 μg/mL, pooled K2EDTA whole blood, 2 hours, LC-MS/MS (ICP-MS for Ga^3+)
[5] = 0.1 μg/mL, pooled sodium heparin whole blood, 2 hours, LC-MS/MS (ICP-MS for Ga^3+)
[6] = 1 μg/mL, pooled K2EDTA whole blood, 2 hours, LC-MS/MS (ICP-MS for Ga^3+)
[7] = 1 μg/mL, pooled sodium heparin whole blood, 2 hours, LC-MS/MS (ICP-MS for Ga^3+)
[8] = Caco-2, 20 μM, 30 and 60 min, average ± SEM, read-out: Papp apical to basolateral
[9] = Caco-2, 20 μM, 30 and 60 min, average ± SEM, read-out: Papp basolateral to apical
[10] = Caco-2, 20 μM, read-out: Efflux ratio B to A/A to B
[11] = 1 μg/mL, selectivity lots n = 6, LC-MS/MS
[12] = 1 μg/mL, selectivity lots n = 6, LC-MS/MS (also in Table 4)

Structure (SMILES) | logP [1] | K2EDTA KRBC/PL [2, 4] | Heparin KRBC/PL [2, 5] | K2EDTA KRBC/PL [2, 6] | Heparin KRBC/PL [2, 7] | Papp A→B [3, 8] [×10⁻⁶ cm/s] | Papp B→A [3, 9] [×10⁻⁶ cm/s] | Papp [3] [×10⁻⁶ cm/s] | efflux ratio at 20 µM [3, 10] | K2EDTA KRBC/PL [2, 11] | Heparin KRBC/PL [2, 12] | ICP-MS calculated KRBC/PL ([2]; 1 μg/mL, 2 hours) | LC-MS/MS calculated KRBC/PL ([2]; 1 μg/mL, 2 hours) | further results
Oc1cc(OCCN2CCOCC2)ccc1C=Nc1ccccc1N=Cc1ccc(OCCN2CCOCC2)cc1O.[Ga+3] [GaSal-3] | 3.87 | 0.28 ± 0.08 | 1.08 ± 0.28 | 0.28 ± 0.04 | 1.03 ± 0.24 | 0.04 ± 0.01 | 1.16 ± 0.09 | < 1.12 | 29 |  |  |  |  | 
COCCOc1ccc(/C=N/c2ccccc2N=C(C)c2ccccc2O)c(O)c1.[Ga+3] [GaSal-14] | 3.31 | 0.69 ± 0.10 | 0.55 ± 0.07 | 1.65 ± 0.18 | 1.86 ± 0.36 | < 0.01 | 1.19 ± 0.4 | < 1.12 |  | 0.08 ± 0.01 | 0.33 ± 0.04 | 0.34 ± 0.02 | 0.33 ± 0.04 | 
COCCOc1ccc(/C=N/c2ccccc2/N=C/c2ccc(OCCOC)cc2O)c(O)c1.[Ga+3] [GaSal-13] | 3.65 | 0.55 ± 0.35 | 0.47 ± 0.22 | 0.08 ± 0.04 | 0.59 ± 0.18 | 0.61 ± 0.01 | 0.91 ± 0.1 | < 1.12 | 1.49 |  |  | 0.48 ± 0.04 | 0.42 ± 0.03 | 
COCCOCCOc1ccc(C=Nc2ccccc2N=Cc2ccc(OCCOCCOC)cc2O)c(O)c1.[Ga+3] [GaSal-5] | 3.95 | 0.63 ± 0.36 | 1.91 ± 0.57 |  | 1.34 ± 0.17 | 0.03 ± 0.01 | 3.2 ± 0.2 | < 1.12 | 107 | 0.16 ± 0.03 | 0.56 ± 0.03 | 0.36 ± 0.03 | 0.56 ± 0.03 | KRBC/PL ([2]; 2 hours, ICP-MS, HQC (1 μg/mL)): 0.572 ± 0.008; KRBC/PL ([2]; 2 hours, ICP-MS, LQC (100 ng/mL)): 0.632 ± 0.080; KRBC/PL ([2]; 2 hours, LC-MS/MS, HQC (1 μg/mL)): 0.043 ± 0.017; KRBC/PL ([2]; 2 hours, LC-MS/MS, LQC (100 ng/mL)): 0.070 ± 0.007
Oc1ccccc1/C=N/c1ccccc1/N=C/c1ccccc1O.[Ga+3] [GaSal, gallium salophen] | 2.58 | 0.22 ± 0.02 | 0.61 ± 0.42 | 0.26 ± 0.03 | 0.57 ± 0.19 | 1.2 ± 0.01 | 13.6 ± 1.78 | 1.12 to 3.51 | 11.3 | 0.58 ± 0.02 | 0.45 ± 0.03 | 0.89 ± 0.04 | 0.45 ± 0.03 | Papp A→B ([3]; Caco-2, with OCT1 inhibitor cocktail (1 μM verapamil and cisplatin), read-out: Papp Apical to Basolateral): 1.81 ± 0.03 ×10⁻⁶ cm/s; Papp B→A ([3]; Caco-2, with OCT1 inhibitor cocktail (1 μM verapamil and cisplatin), read-out: Papp Basolateral to Apical): 14.7 ± 3.26 ×10⁻⁶ cm/s; Papp A→B ([3]; Caco-2, with PGP inhibitor cocktail (1 μM cannabidiol and itraconazole), read-out: Papp Apical to Basolateral): 1.33 ± 0.03 ×10⁻⁶ cm/s; Papp B→A ([3]; Caco-2, with PGP inhibitor cocktail (1 μM cannabidiol and itraconazole), read-out: Papp Basolateral to Apical): 16.8 ± 3.86 ×10⁻⁶ cm/s; efflux ratio at 20 µM ([3]; Caco-2, with OCT1 inhibitor cocktail, read-out: Efflux Ratio B to A/ A to B): 8.1; efflux ratio at 20 µM ([3]; Caco-2, with PGP inhibitor cocktail, read-out: Efflux Ratio B to A/ A to B): 12.6
O=C(O)CCOc1ccc(C=Nc2ccccc2N=Cc2ccc(OCCC(=O)O)cc2O)c(O)c1.[Ga+3] [GaSal-4] | 3.33 | 2288 ± 94 | 3422 ± 435 | 9220 ± 484 | 8098 ± 1102 | < 0.01 | 1.44 ± 0.19 | < 1.12 |  |  |  |  |  | 
